For one compound, Ki results are on record in BindingDB's records for doi:10.1016/s0960-894x(98)00672-6 (University of Maryland, 1999).

The target in this test is Guanine deaminase (Oryctolagus cuniculus). Kind of test: Compound was tested for its inhibitory effect on rabbit liver guanase.

Turning to `O=c1cnc2c(ncn2Cc2ccccc2)c(=O)[nH]1` [3-Benzyl-3H-imidazo[4,5-e][1,4]diazepine-6,8-dione], the Ki (usually the equilibrium dissociation constant of an inhibitor or competing ligand from its target) is 227 µM.
